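Protocol summary: plate cells (96-well), add compound at 5 concentrations, incubate 48 h, interpolate endpoints linearly. The concentration for 50% growth inhibition is given as GI50.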 The source made the active and inactive calls. Rule as the data show it: active = GI50 up to about 1.1 µM and inactive = higher.
Assays:
Experiment in all cases: NCI-60 cell line screen, 48 h
786-0 = tested on: 786-0
A549 = tested on: A549
CCRF-CEM = tested on: CCRF-CEM
DU-145 = tested on: DU-145
HCT-116 = tested on: HCT-116
KM12 = tested on: KM12
MDA-N = tested on: MDA-N
MOLT-4 = tested on: MOLT-4
NCI-H226 = tested on: NCI-H226
OVCAR-3 = tested on: OVCAR-3
PC-3 = tested on: PC-3
SF-268 = tested on: SF-268
SK-MEL-2 = tested on: SK-MEL-2
SK-OV-3 = tested on: SK-OV-3
SN12C = tested on: SN12C
SNB-75 = tested on: SNB-75
SR = tested on: SR
T47D = tested on: T47D
UACC-257 = tested on: UACC-257
A498 = tested on: A498

| SMILES | GI50 (786-0) | GI50 (A549) | GI50 (CCRF-CEM) | GI50 (DU-145) | GI50 (HCT-116) | GI50 (KM12) | GI50 (MDA-N) | GI50 (MOLT-4) | GI50 (NCI-H226) | GI50 (OVCAR-3) | GI50 (PC-3) | GI50 (SF-268) | GI50 (SK-MEL-2) | GI50 (SK-OV-3) | GI50 (SN12C) | GI50 (SNB-75) | GI50 (SR) | GI50 (T47D) | GI50 (UACC-257) | GI50 (A498) |
| --- | --- | --- | --- | --- | --- | --- | --- | --- | --- | --- | --- | --- | --- | --- | --- | --- | --- | --- | --- | --- |
| CCCC(C)c1c(Cl)nc(Cl)nc1Cl (stereo not drawn) | 4.79 µM (inactive) | 10.1 µM (inactive) | 0.189 µM (active) | 15 µM (inactive) | 1.73 µM (inactive) | 2.47 µM (inactive) | 4.72 µM (inactive) | 1.49 µM (inactive) | 4.34 µM (inactive) | 9.57 µM (inactive) | 14.8 µM (inactive) | 10.3 µM (inactive) | 23.9 µM (inactive) | 20.2 µM (inactive) | 7.94 µM (inactive) | 14.5 µM (inactive) | 4.58 µM (inactive) | 6.38 µM (inactive) | 11 µM (inactive) |  |
| Cc1ccc(C2(c3ccc(Cl)cc3)c3ccccc3C3=NCCN32)cc1 (stereo not drawn) | 13.1 µM (inactive) | 11.1 µM (inactive) | 4.5 µM (inactive) | 13.2 µM (inactive) | 2.19 µM (inactive) | 10.7 µM (inactive) | 3.37 µM (inactive) | 3.66 µM (inactive) | 16.3 µM (inactive) | 10.3 µM (inactive) | 8.3 µM (inactive) | 15.1 µM (inactive) | 12.2 µM (inactive) | 6.08 µM (inactive) | 15.1 µM (inactive) | 12.2 µM (inactive) |  | 15.7 µM (inactive) | 6.55 µM (inactive) | 4.92 µM (inactive) |
| CCN(CC)CCC(=O)NC1c2ccc(Cl)cc2Oc2c(C)cccc21 (stereo not drawn) | 12.6 µM (inactive) | 16.5 µM (inactive) | 17.2 µM (inactive) | 16 µM (inactive) | 16.3 µM (inactive) | 15.6 µM (inactive) | 16.6 µM (inactive) | 18.6 µM (inactive) |  | 15.5 µM (inactive) | 13.2 µM (inactive) | 8.53 µM (inactive) |  | 17.6 µM (inactive) | 17.3 µM (inactive) | 10.2 µM (inactive) | 18.5 µM (inactive) | 14 µM (inactive) | 17.1 µM (inactive) |  |
| CO/C(=N\N=C\c1cccc(Cl)c1)c1ccncc1 | > 10 µM (inactive) | > 10 µM (inactive) | > 10 µM (inactive) | > 10 µM (inactive) | > 10 µM (inactive) | > 10 µM (inactive) | > 10 µM (inactive) | > 10 µM (inactive) | > 10 µM (inactive) | > 10 µM (inactive) | > 10 µM (inactive) | > 10 µM (inactive) | > 10 µM (inactive) |  | > 10 µM (inactive) |  | > 10 µM (inactive) | > 10 µM (inactive) | > 10 µM (inactive) |  |
| COC(=O)[C@]1(c2cc3ccccc3[nH]2)CC2CN(CC(=O)N(C)OC)C1C1OC(C)(C)OC21 (stereo partly drawn) | 45.9 µM (inactive) | 33.3 µM (inactive) | 53.8 µM (inactive) | > 100 µM (inactive) | 32.4 µM (inactive) | 29.6 µM (inactive) | 49.5 µM (inactive) | 8.32 µM (inactive) | 56 µM (inactive) | 41.8 µM (inactive) | 42.5 µM (inactive) | > 100 µM (inactive) | 74.8 µM (inactive) | > 100 µM (inactive) | 55 µM (inactive) | > 100 µM (inactive) |  | 28.6 µM (inactive) | 32 µM (inactive) | 24 µM (inactive) |
| CCN(CC)C(=O)c1cc([N+](=O)[O-])c(=O)n2c1[nH]c1ccccc12 | > 100 µM (inactive) | > 100 µM (inactive) | > 100 µM (inactive) | > 100 µM (inactive) | > 100 µM (inactive) | > 100 µM (inactive) | > 100 µM (inactive) | > 100 µM (inactive) | > 100 µM (inactive) | > 100 µM (inactive) | > 100 µM (inactive) | > 100 µM (inactive) |  | > 100 µM (inactive) | > 100 µM (inactive) | > 100 µM (inactive) | > 100 µM (inactive) | > 100 µM (inactive) | > 100 µM (inactive) |  |
| O=C1NN=C(c2c[nH]c3ccccc23)CC1NCc1ccccc1 (stereo not drawn) | > 100 µM (inactive) | > 100 µM (inactive) | > 100 µM (inactive) | > 100 µM (inactive) | > 100 µM (inactive) | > 100 µM (inactive) | > 100 µM (inactive) | > 100 µM (inactive) | > 100 µM (inactive) | > 100 µM (inactive) | > 100 µM (inactive) | > 100 µM (inactive) | > 100 µM (inactive) | > 100 µM (inactive) | > 100 µM (inactive) | > 100 µM (inactive) |  | > 100 µM (inactive) | > 100 µM (inactive) | > 100 µM (inactive) |
| O=C(CN1c2ccccc2Sc2ccccc21)n1cnc2ccccc21 | 52.6 µM (inactive) | > 100 µM (inactive) | 73.1 µM (inactive) | > 100 µM (inactive) | > 100 µM (inactive) | 59.8 µM (inactive) | > 100 µM (inactive) | 51.4 µM (inactive) | 45 µM (inactive) | 62.8 µM (inactive) | 70.6 µM (inactive) | > 100 µM (inactive) | > 100 µM (inactive) | 47.1 µM (inactive) | > 100 µM (inactive) | > 100 µM (inactive) |  | 49.8 µM (inactive) | > 100 µM (inactive) | 45.3 µM (inactive) |
| Oc1ccc(SCc2cc(O)ccc2O)cc1 | 12.8 µM (inactive) | 41.3 µM (inactive) | 1.79 µM (inactive) | 24.7 µM (inactive) | 11.2 µM (inactive) | 17.5 µM (inactive) | 14.4 µM (inactive) | 3.86 µM (inactive) | 9.42 µM (inactive) | 7.69 µM (inactive) | 6.1 µM (inactive) | 9.04 µM (inactive) | 14.9 µM (inactive) | 30.2 µM (inactive) | 10.2 µM (inactive) | 20.9 µM (inactive) |  | 8.39 µM (inactive) | 13.9 µM (inactive) | 34 µM (inactive) |
| C/C(=N\c1cc(Cl)cc(Cl)c1)c1ccncc1 | > 100 µM (inactive) | > 100 µM (inactive) | > 100 µM (inactive) | > 100 µM (inactive) | > 100 µM (inactive) | > 100 µM (inactive) | > 100 µM (inactive) | > 100 µM (inactive) | > 100 µM (inactive) | > 100 µM (inactive) | > 100 µM (inactive) | > 100 µM (inactive) | > 100 µM (inactive) | 29.9 µM (inactive) | > 100 µM (inactive) | > 100 µM (inactive) |  | > 100 µM (inactive) | > 100 µM (inactive) | > 100 µM (inactive) |
| N=c1c2c3n(c4c(=O)n(-c5ccccc5)c(=S)n(c(=O)n1-c1ccccc1)c24)CCCCC3 | > 100 µM (inactive) | > 100 µM (inactive) | > 100 µM (inactive) | > 100 µM (inactive) | > 100 µM (inactive) | > 100 µM (inactive) | > 100 µM (inactive) |  | > 100 µM (inactive) | > 100 µM (inactive) | > 100 µM (inactive) | > 100 µM (inactive) | > 100 µM (inactive) | > 81.1 µM (inactive) | > 100 µM (inactive) | > 63.1 µM (inactive) |  | 55.6 µM (inactive) | > 100 µM (inactive) | > 96.2 µM (inactive) |
